In US5571942A, “Ring-substituted 2-amino-1,2,3,4-tetrahydronaphthalenes and 3-aminochromanes” (Eli Lilly and Company, priority 1995, dated 1996):

Key:
Parameters in all cases: species or system rat (male Sprague-Dawley)
[1] = biological target: T1, 5-HT1A receptors (Rattus norvegicus, UniProt P19327); test: in vitro binding: inhibition of 3H-8-OH-DPAT binding to synaptosomal membranes from rat cerebral cortex; details: 3H-8-OH-DPAT 2 nM, 37° C., 10 min, pH 7.4
T1 construct: from tissue; host or cells: cerebral cortex (crude synaptosomal membranes) of male Sprague-Dawley rats
T1 sequence (P19327 1-422): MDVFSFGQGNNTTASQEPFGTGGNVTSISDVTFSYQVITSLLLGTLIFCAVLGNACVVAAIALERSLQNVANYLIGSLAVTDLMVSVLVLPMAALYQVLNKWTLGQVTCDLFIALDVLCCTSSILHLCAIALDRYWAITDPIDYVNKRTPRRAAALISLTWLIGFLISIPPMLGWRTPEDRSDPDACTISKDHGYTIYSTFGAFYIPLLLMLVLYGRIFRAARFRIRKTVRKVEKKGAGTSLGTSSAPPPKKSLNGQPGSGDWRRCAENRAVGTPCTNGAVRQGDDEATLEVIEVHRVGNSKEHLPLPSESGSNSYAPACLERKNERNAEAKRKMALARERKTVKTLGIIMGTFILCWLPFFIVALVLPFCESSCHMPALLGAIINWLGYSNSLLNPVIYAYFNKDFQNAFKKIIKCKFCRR
Source text: Sites specifically labeled by tritiated 8-hydroxy-2-dipropylamino-1,2,3,4-tetrahydronaphthalene (^3 H-8-OH-DPAT) have been identified as 5-HT1A receptors. This general procedure is set forth in Wong et al., J. Neural Transm. 71:207-218 (1988).
Male Sprague-Dawley rats (110-150 g) from Harlan Industries (Cumberland, Ind.) were fed a Purina Chow ad libitum for at least 3 days before being used in the studies. Rats were killed by decapitation. The brains were rapidly removed, and the cerebral cortices were dissected out at 4° C.
Brain tissues were homogenized in 0.32M sucrose. After centrifugation at 1000×g for 10 min and then at 17000×g for 20 min, a crude synaptosomal fraction was sedimented. The pellet was suspended in 100 vol of 50 mM Tris-HCl, pH 7.4, incubated at 37° C. for 10 min, and centrifuged at 50000×g for 10 min. The process was repeated and the final pellet was suspended in ice-chilled 50 mM Tris-HCl, pH 7.4.
Binding of ^3 H-8-OH-DPAT was performed according to the previously described method [Wong et al., J. Neural Transm. 64:251-269 (1985)]. Briefly, synaptosomal membranes isolated from cerebral cortex were incubated at 37° C. for 10 min. in 2 ml of 50 mM Tris-HCl, pH 7.4; 10 mM pargyline; 0.6 mM ascorbic acid; 5 mM CaCl2; 2 nM ^3 H-8-OH-DPAT and 0.1 to 1000 nm of the compound of interest. Binding was terminated by filtering samples under reduced pressure through glass fiber (GFB) filters. The filters were washed twice with 5 ml of ice cold buffer and placed in scintillation vials with 10 ml of PCS (Amersham/Searle) scintillation fluid. Radioactivity was measured with a liquid scintillation spectrometer. Unlabeled 8-OH-DPAT at 10 μM was also included in separate samples to establish non-specific binding. Specific binding of ^3 H-8-OH-DPAT is defined as the difference of radioactivity bound in the absence and in the presence of 10 μM unlabeled 8-OH-DPAT.
(§1) The results provided in columns 3-5 are indicative of 5-HT1A agonist activity.

[2] = biological target: T1, 5-HT1A receptors; test: in vivo lowering of brain 5-HIAA levels (5-HT1A agonist activity); details: sc, one hour after treatment
Method: (§2) Compounds of this invention were also examined for their in vivo effects on brain 5-HIAA and serum corticosterone levels. Male Sprague-Dawley rats weighting 150-200 g were administered subcutaneously or orally with aqueous solutions of the test compound. One hour after treatment, the rats were decapitated and trunk blood collected. The blood was allowed to clot and then was centrifuged to separate the serum. The concentration of corticosterone in the serum was determined by the spectrofluorometric method of Solem, J. H.; Brinck-Johnsen, T., Scand. J. Clin. Invest. [Suppl. 80], 17, 1 (1965). The whole brains from the decapitated rats were quickly removed, frozen on dry ice, and stored at -15° C. 5-HIAA concentrations were measured by liquid chromatography with electrochemical detection as described by Fuller, R. W.; Snoddy, H. D.; Perry, K. W., Life Sci. 40, 1921 (1987).
as §1

[3] = biological target: T1, 5-HT1A receptors; test: in vivo elevation of serum corticosterone levels (5-HT1A agonist activity); details: sc, one hour after treatment
Method: as §2, §1

`CCCN(CCC)C1CCc2cccc(-c3noc4ccccc34)c2C1` (stereo not drawn) [Example 17, 2-Di-n-propylamino-8-(indoxazin-3-yl)-1,2,3,4-tetrahydronaphthalene] was tested, and the IC50 [1] was 5 nM, the “5-HIAA MED (minimum effective dose lowering brain 5-HIAA levels)” value [2] was greater than 1.0 mg/kg and the “Corticosterone MED (minimum effective dose elevating serum corticosterone levels)” value [3] was greater than 1.0 mg/kg.
